Assay results: US11180483B2, “Substituted reverse pyrimidine Bmi-1 inhibitors” (PTC Therapeutics, Inc., priority 2012, dated 2021)

Each molecule was assayed on Bmi-1 (assay: Sandwich ELISA Assay (Bmi-1 ELISA) in HT-1080 cells).
Format: cell-based
Method: Cell Seeding and Compound Treatment (Day 1):
HT-1080 cells were seeded at 8000 cells/well (50 μL) in 96-well tissue culture plates. After the cells became adherent (3-4 hours), 2× diluted stocks of test compounds in 50 μL DMEM containing 1% DMSO (final DMSO concentration was 0.5%) were added and the plates were incubated at 37° C. under 5% CO2 for 40-48 hours.
ELISA Plate First Antibody Preparation (Day 2):
The First Antibody (Millipore Mouse, monoclonal to mouse Bmi-1, clone F6, catalog #05-637) diluted to 2 μg/mL in PBS was added (100 μL) to each well of a Nunc MaxiSorp 96-well ELISA plate. The plate was covered with a plate seal and allowed to stand overnight.
Cell Lysate Preparation (Day 3):
Fresh 1× Lysis buffer was prepared on the day of the assay as follows: 1 mM EDTA, 150 mM NaCl, 0.5% Triton-X 100, 10 mM NaF, 20 mM B-Glycerophosphate, 1 mM DTT (in PBS, pH 7.2-7.4) and 1× HALT protease inhibitor cocktail (Pierce #78410).
The 1× Lysis Buffer (40 μL) was added to each well and the plate was shaken for 5-10 minutes on an orbital shaker to allow cell lysis, then diluent (1% BSA in PBS in 0.5% NP40) (100 μL) was added to each well.
A standard curve was prepared at the following Bmi-1 concentrations: 8000, 4000, 2000, 1000, 500, 250, 125, 0 pg/mL The Bmi-1 Recombinant Protein Standard (Novus Biologicals PCGF4 Recombinant Protein (P01), catalog #H00000648-P01) used to prepare the standard curve was stored at −80° C. On first thaw, the Bmi-1 Recombinant Protein Standard was diluted to […] in Blocking Buffer (1% BSA in PBS; BSA: Fisher Scientific Catalog #1600-100). Aliquots were taken and refrozen at −80° C. The aliquots may be kept at 4° C. and reused after first thaw, but only within 1-2 weeks. The Bmi-1 Recombinant Protein Standard contains a GST-fusion tag that appears around 70 Kda on Western Blot.
The prepared ELISA plate was washed 3× with Wash Buffer (0.05% Tween-20 in PBS). The final wash was removed from the plate and the plate was blotted dry. Blocking Buffer (300 μL) (1% BSA in PBS) was added to each well. The plate was covered with a plate seal and incubated at room temperature for 1 hour. The blocked plate was washed 3× with Wash Buffer, then the final wash was removed and the plate was blotted dry. The previously prepared samples and standards were added (100 μL/well) and the plate was covered with a plate seal and incubated at 4° C. overnight.
The prepared ELISA plate was removed from 4° C., incubated at room temperature for 30 minutes, then washed and blotted dry as previously described for Day 3. The Second Antibody (Cell Signaling Rabbit anti-Bmi-1, Cat #2830) diluted to 1:600 in Blocking Buffer was added (100 μL) to each well, except as needed for background control wells. The plate was covered with a plate seal and incubated for 1.5 hrs at room temperature.
The ELISA plate was washed and blotted dry as previously described. The Third Antibody (Cell Signaling HRP conjugated anti-rabbit IgG (CellSignaling, Cat #:7074) diluted to 1:300 in Blocking Buffer was added (100 μL) to each well, except as needed for background control wells. The plate was incubated for 1 hr at room temperature.
The plate was washed and blotted dry as previously described, then prepared TMB substrate (TMB substrate kit, Pierce catalog #34021) (prepared by mixing kit reagents 1:1) (100 μL) was added per well. The plate was incubated for 20-30 minutes at room temperature in the dark, then Stop Solution (2 M sulfuric acid in water) (50 μL) was added per well. The plates were read at OD450 (experimental) and OD570 (reference).
For COc1ccc(Nc2ccnc(-c3c(C(F)(F)F)nn4ccccc34)n2)cc1 [Cpd 60, N-(4-methoxyphenyl)-2-[2-(trifluoromethyl)pyrazolo[1,5-a]pyridin-3-yl]pyrimidin-4-amine], the EC50 was 10 to 100 nM. Cc1nc2ccccc2n1-c1nccc(Nc2ccc(OC(F)F)cc2)n1 [Cpd 61, N-[4-(difluoromethoxy)phenyl]-2-(2-methyl-1H-benzimidazol-1-yl)pyrimidin-4-amine] showed an EC50 of 100 to 3000 nM. Molecule Cc1ccc(Nc2ccnc(-c3c(C(F)(F)F)nc4cnccn34)n2)cc1 [Cpd 62, N-(4-methylphenyl)-2-[2-(trifluoromethyl)imidazo[1,2-a]pyrazin-3-yl]pyrimidin-4-amine] has an EC50 of 10 to 100 nM. Cc1nc2ccccc2n1-c1nc(N)cc(Nc2ccc(C(F)(F)F)cc2)n1 [Cpd 63, 2-(2-methyl-1H-benzimidazol-1-yl)-N-[4-(trifluoromethyl)phenyl]pyrimidine-4,6-diamine] gave an EC50 of 10 to 100 nM. In the case of Cc1nc2cc(F)c(F)cc2n1-c1nc(N)cc(Nc2ccc(C(F)(F)F)cc2)n1 [Cpd 64, 2-(5,6-difluoro-2-methyl-1H-benzimidazol-1-yl)-N-[4-(trifluoromethyl)phenyl]pyrimidine-4,6-diamine], the EC50 is reported as 10 to 100 nM. Nc1cc(Nc2ccc(OC(F)F)cc2)nc(-c2c(C(F)(F)F)nc3ccccn23)n1 [Cpd 65, N-[4-(difluoromethoxy)phenyl]-2-[2-(trifluoromethyl)imidazo[1,2-a]pyridin-3-yl]pyrimidine-4,6-diamine] showed an EC50 of 10 to 100 nM. Work on Cc1nc2ccc(F)cn2c1-c1nc(N)cc(Nc2ccc(C(F)(F)F)cc2)n1 [Cpd 68, 2-(6-fluoro-2-methylimidazo[1,2-a]pyridin-3-yl)-N-[4-(trifluoromethyl)phenyl]pyrimidine-4,6-diamine] yielded an EC50 of 10 to 100 nM. Cc1nc2ccc(F)cc2n1-c1nc(N)cc(Nc2ccc(C(F)(F)F)cc2)n1 [Cpd 71, 2-(6-fluoro-2-methyl-1H-benzimidazol-1-yl)-N-[4-(trifluoromethyl)phenyl]pyrimidine-4,6-diamine] was tested, and the EC50 was 10 to 100 nM. For Cc1nc2ncccc2n1-c1nc(N)cc(Nc2ccc(C(F)(F)F)cc2)n1 [Cpd 73, 2-(2-methyl-1H-imidazo[4,5-b]pyridin-1-yl)-N-[4-(trifluoromethyl)phenyl]pyrimidine-4,6-diamine], the EC50 was 10 to 100 nM. For Cc1nc2cc(F)c(F)cc2n1-c1nc(N)cc(Nc2ccc(C(F)(F)F)c(F)c2)n1 [Cpd 74, 2-(5,6-difluoro-2-methyl-1H-benzimidazol-1-yl)-N-[3-fluoro-4-(trifluoromethyl)phenyl]pyrimidine-4,6-diamine], the EC50 was 100 to 3000 nM. Cc1cc2nc(C)n(-c3nc(N)cc(Nc4ccc(C(F)(F)F)cc4)n3)c2cc1C [Cpd 79, N-[4-(trifluoromethyl)phenyl]-2-(2,5,6-trimethyl-1H-benzimidazol-1-yl)pyrimidine-4,6-diamine] was tested, and the EC50 was 100 to 3000 nM. For Cc1nc2ccccc2n1-c1nc(N)cc(Nc2ccc(C(F)(F)F)c(F)c2)n1 [Cpd 80, N-[3-fluoro-4-(trifluoromethyl)phenyl]-2-(2-methyl-1H-benzimidazol-1-yl)pyrimidine-4,6-diamine], the EC50 was 10 to 100 nM. With Nc1cc(Nc2ccc(C(F)(F)F)cc2)nc(-n2c(C3CC3)nc3ccc(F)cc32)n1 [Cpd 82, 2-(2-cyclopropyl-6-fluoro-1H-benzimidazol-1-yl)-N-[4-(trifluoromethyl)phenyl]pyrimidine-4,6-diamine] the EC50 was 10 to 100 nM. With Nc1cc(Nc2ccc(C(F)(F)F)cc2)nc(-n2c(C3CC3)nc3cc(F)ccc32)n1 [Cpd 83, 2-(2-cyclopropyl-5-fluoro-1H-benzimidazol-1-yl)-N-[4-(trifluoromethyl)phenyl]pyrimidine-4,6-diamine] the EC50 was 10 to 100 nM. Nc1cc(Nc2ccc(C(F)(F)F)cc2)nc(-c2c(CO)nc3ccc(F)cn23)n1 [Cpd 84, [3-(4-amino-6-{[4-(trifluoromethyl)phenyl]amino}pyrimidin-2-yl)-6-fluoroimidazo[1,2-a]pyridin-2-yl]methanol] showed an EC50 of 100 to 3000 nM. With Cc1nc2ccc(Br)cc2n1-c1nc(N)cc(Nc2ccc(C(F)(F)F)cc2)n1 [Cpd 85, 2-(6-bromo-2-methyl-1H-benzimidazol-1-yl)-N-[4-(trifluoromethyl)phenyl]pyrimidine-4,6-diamine] the EC50 was 100 to 3000 nM. Cc1ccc2nc(C)n(-c3nc(N)cc(Nc4ccc(C(F)(F)F)cc4)n3)c2c1 [Cpd 86, 2-(2,6-dimethyl-1H-benzimidazol-1-yl)-N-[4-(trifluoromethyl)phenyl]pyrimidine-4,6-diamine] showed an EC50 of 10 to 100 nM. CCc1ccc2nc(C)n(-c3nc(N)cc(Nc4ccc(C(F)(F)F)cc4)n3)c2c1 [Cpd 87, 2-(6-ethyl-2-methyl-1H-benzimidazol-1-yl)-N-[4-(trifluoromethyl)phenyl]pyrimidine-4,6-diamine] was tested, and the EC50 was 100 to 3000 nM. Work on Cc1nc2c(F)cc(F)cc2n1-c1nc(N)cc(Nc2ccc(C(F)(F)F)cc2)n1 [Cpd 88, 2-(4,6-difluoro-2-methyl-1H-benzimidazol-1-yl)-N-[4-(trifluoromethyl)phenyl]pyrimidine-4,6-diamine] yielded an EC50 of 10 to 100 nM. Molecule Cc1nc2c(F)cc(F)cc2n1-c1nc(N)cc(Nc2ccc(C(F)(F)F)c(F)c2)n1 [Cpd 89, 2-(4,6-difluoro-2-methyl-1H-benzimidazol-1-yl)-N-[3-fluoro-4-(trifluoromethyl)phenyl]pyrimidine-4,6-diamine] has an EC50 of 100 to 3000 nM. Work on Cc1nc2c(F)cc(F)cc2n1-c1nc(NCCO)cc(Nc2ccc(C(F)(F)F)cc2)n1 [Cpd 90, 2-{[2-(4,6-difluoro-2-methyl-1H-benzimidazol-1-yl)-6-{[4-(trifluoromethyl)phenyl]amino}pyrimidin-4-yl]amino}ethanol] yielded an EC50 of 100 to 3000 nM. In the case of C=Cc1ccc2nc(C)n(-c3nc(N)cc(Nc4ccc(C(F)(F)F)cc4)n3)c2c1 [Cpd 91, 2-(6-ethenyl-2-methyl-1H-benzimidazol-1-yl)-N-[4-(trifluoromethyl)phenyl]pyrimidine-4,6-diamine], the EC50 is reported as 100 to 3000 nM. Work on Nc1cc(Nc2ccc(C(F)(F)F)cc2)nc(-n2c(C3CC3)nc3ncc(F)cc32)n1 [Cpd 92, 2-(2-cyclopropyl-6-fluoro-1H-imidazo[4,5-b]pyridin-1-yl)-N-[4-(trifluoromethyl)phenyl]pyrimidine-4,6-diamine] yielded an EC50 of 10 to 100 nM. With Cc1nc2ccc(Cl)cc2n1-c1nc(N)cc(Nc2ccc(C(F)(F)F)cc2)n1 [Cpd 93, 2-(6-chloro-2-methyl-1H-benzimidazol-1-yl)-N-[4-(trifluoromethyl)phenyl]pyrimidine-4,6-diamine] the EC50 was 10 to 100 nM. Cc1nc2ncc(F)cc2n1-c1nc(N)cc(Nc2ccc(C(F)(F)F)cc2)n1 [Cpd 94, 2-(6-fluoro-2-methyl-1H-imidazo[4,5-b]pyridin-1-yl)-N-[4-(trifluoromethyl)phenyl]pyrimidine-4,6-diamine] was tested, and the EC50 was 10 to 100 nM. Cc1nc2ccccc2n1-c1nc(N)c(F)c(Nc2ccc(C(F)(F)F)cc2)n1 [Cpd 95, 5-fluoro-2-(2-methyl-1H-benzimidazol-1-yl)-N-[4-(trifluoromethyl)phenyl]pyrimidine-4,6-diamine] gave an EC50 of 10 to 100 nM. Cc1nc2ccc(Cl)cc2n1-c1nc(N)cc(Nc2ccc(C(F)(F)F)c(F)c2)n1 [Cpd 96, 2-(6-chloro-2-methyl-1H-benzimidazol-1-yl)-N-[3-fluoro-4-(trifluoromethyl)phenyl]pyrimidine-4,6-diamine] was tested, and the EC50 was 100 to 3000 nM. Cc1nc2ccc(Cl)cc2n1-c1nc(N)cc(Nc2ccc(OC(F)F)cc2)n1 [Cpd 97, 2-(6-chloro-2-methyl-1H-benzimidazol-1-yl)-N-[4-(difluoromethoxy)phenyl]pyrimidine-4,6-diamine] gave an EC50 of 10 to 100 nM. With Cc1nc2cc(Cl)ccc2n1-c1nc(N)cc(Nc2ccc(C(F)(F)F)c(F)c2)n1 [Cpd 98, 2-(5-chloro-2-methyl-1H-benzimidazol-1-yl)-N-[3-fluoro-4-(trifluoromethyl)phenyl]pyrimidine-4,6-diamine] the EC50 was 100 to 3000 nM.
